Legend:
Type in all cases: cell-based, human
[1] = system: CD8+CD45RA+CCR7+CD62L+ T cells; test: Flow cytometry for CD8, CD45RA, CCR7 and CD62L on inhibitor-treated T cells; conditions: cells cultured for 14 days
Experimental: (§1) DAY 0: Blood was obtained from unidentified donor. After RBC lysis, PBMC were collected using Ficoll-Hypaque separation. […] T cells were cultured in three different conditions: • 1. XVIVO 15 medium (Lonza) with IL2 50 IU/ml, CD3 antibody (30 ng/ml) and CD28 antibody (30 ng/ml). • 2. XVIVO 15 medium (Lonza) with CD3 antibody (30 ng/ml) and CD28 antibody (30 ng/ml). • 3. XVIVO 15 medium (Lonza) with IL2 50 IU/ml DAY 1: Cells were plated in a 6-well plate at a density of 1 million cells in 2 ml/of media (as described above) and treated with different inhibitors
(§2) A second aliquot of the cells cultured for 13 days with all the treatments listed above (1-21) was washed with PBS+1% FBS, stained with CD8-PerCP, CD45RA-FITC, CCR7-PE and CD62L-APC (5% Y/100 μl/sample for each of 4 antibodies) at 4° C. for 1 h, washed twice with PBS+100 FBS and analyzed on flow cytometer to check if these drugs are enriching T stem cells showing surface expression of CD8+CD45RA+CCR7+CD62L+.
(§3) Day 0: Blood was obtained from unidentified donor. After RBC lysis, PBMC were collected using Ficoll-Hypaque separation. 200 million T cells were isolated from PBMCs using CD3 microbeads. T cells were cultured overnight in XVIVO 15 medium (Lonza) with IL2 (50 IU/ml), 30 ng/ml of CD3 and CD28 antibodies
(§4) Day 1: Cells were plated in 24-well plates at a density of 0.3 million cells/ml in each well and treated with different drugs.
(§5) On day 7, culture medium was replaced with fresh medium with fresh drugs.
(§6) On day 13, culture medium was replaced with fresh medium and fresh drugs. Half of the cells were transferred to 6-well plates.
as §2, with “14” for “13”, “above” for “above (1-21)”, “(5 ul/100 ul/sample” for “(5% Y/100 μl/sample”, “PBS+1%” for “PBS+100”, “enriching for” for “enriching”, “T” for “T stem”

[2] = system: Pgp+ (DiOC2(3)-dye effluxing cells) and CD62L+ T cells; test: DiOC2(3) dye efflux plus CD62L-APC staining, flow cytometry of inhibitor-treated T cells; conditions: treatment for 13 days, IL2 + CD3 and CD28 antibodies
Experimental: (§7) The use of P-glycoprotein (Pgp)-mediated efflux of DiOC2(3) to isolate stem like T cells for adoptive cellular therapy has been described in application no. […] In the following examples, DiOC2(3) staining was used to study the effect of different inhibitors on generation of stem like T cells.
as §1
(§8) The cell growth medium was changed in 6-well plates and fresh drugs were added at same concentration for one more week.
(§9) […] (DAY 11): Culture medium was changed and fresh drugs were added in 6-well plates.
(§10) Subsequently, cells were washed with RPMI medium and dye was effluxed at 37° C. for 90 min. Cells were washed with […], stained with CD62L-APC (5 μl/100 μl/sample) at 4° C. for 1 h, washed twice with PBS+1% FBS and analyzed on flow cytometer to check if these drugs treatment leads to increase in Pgp+/CD62L positive population.
as §3, §4, §5, §6
(§11) Day 14: An aliquot of cells with all the treatments listed above (for 13 days) was used to stain the cells with DiOC2(3) (60 ng/ml in RPMI medium) at 4° C. for 40 min, washed with RPMI medium, DiOC2(3) dye was effluxed at 37° C. for 90 min, washed with PBS+1% FBS, stained with CD62L-APC antibody. CD62L is a marker for resting T cells. (5 μl/100 μl/sample) at 4° C. for 1 h, washed twice with PBS+1% FBS and analyzed on flow cytometer to check if these drugs are affecting the dye-effluxing or Pgp+ (i.e., DiOC2(3)-dull) T-cell population.

[3] = system: Pgp+ (DiOC2(3)-dye effluxing) T cells; test: DiOC2(3) dye efflux flow cytometry of inhibitor-treated T cells; conditions: treatment for 13 days, IL2 + CD3 and CD28 antibodies
Experimental: as §7, §1, §8, §9, §10, §3, §4, §5, §6, §11

[4] = system: CD45RA+CCR7+CD62L+ T cells; test: Flow cytometry for CD45RA, CCR7 and CD62L on inhibitor-treated T cells (all T cells); conditions: cells cultured for 14 days
Experimental: as §1, §2, §3, §4, §5, §6
as §2, with “14” for “13”, “above” for “above (1-21)”, “(5 ul/100 ul/sample” for “(5% Y/100 μl/sample”, “PBS+1%” for “PBS+100”, “enriching for” for “enriching”, “T” for “T stem”

Structure (SMILES)	GATE P4 CD8(PerCP)+, CD45RA(FITC)+, CCR7 (PE)+, CD62L(APC) ([1]; 1 μM)	GATE P4 CD8(PerCP)+, CD45RA(FITC)+, CCR7 (PE)+, CD62L(APC) ([1]; 2 μM)	p5: double +ve pgp+ and CD62L-APC+ from Live cells ([2]; 1 μM)	p5: double +ve pgp+ and CD62L-APC+ from Live cells ([2]; 2 μM)	p2: pgp+ from Live cells ([3]; 1 μM)	p2: pgp+ from Live cells ([3]; 2 μM)	GATE P6 CD45RA(FITC)+, CCR7 (PE)+, CD62L(APC) ([4]; 1 μM)	GATE P6 CD45RA(FITC)+, CCR7 (PE)+, CD62L(APC) ([4]; 2 μM)	GATE P4 CD8(PerCP)+, CD45RA(FITC)+, CCR7 (PE)+, CD62L(APC) ([1]; 500 nM)	p5: double +ve pgp+ and CD62L-APC+ from Live cells ([2]; 500 nM)	p2: pgp+ from Live cells ([3]; 500 nM)	GATE P6 CD45RA(FITC)+, CCR7 (PE)+, CD62L(APC) ([4]; 500 nM)
Cc1cc(C)c(CNC(=O)c2cc(-c3ccc(N4CCN(C)CC4)nc3)cc3c2c(C)cn3C(C)C)c(=O)[nH]1 [GSK503]	75.24%	75.8%	15.79	19.99	47.87	56.13	63.54%	62.62%				
CCn1cc(-c2cccc(C(F)(F)F)c2)c2sc(C(=N)NC3CCS(=O)(=O)CC3)cc2c1=O [IBRD9]	79.18%		7.26		31.69		67.77%		74.3%	4.51	21.12	61.53%
